Results on ten molecules are retold here after PubChem BioAssay (NCI).

Some test systems named below: SN12C renal; SNB-75 CNS; ACHN renal; NCI-H23 lung; COLO 205 colon; RXF 393 renal; UACC-257 melanoma; 786-0 renal; RPMI-8226 leukemia; NCI-H522 lung.
Common to all, as to assay: NCI-60 cell line screen, 48 h

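Growth conditions: 96-well plates. Treatment: test compound, 48 hours, 5 concentrations. Analysis: linear interpolation between bracketing concentrations; unreached endpoints set to highest concentration. Abbreviation: GI50, concentration required for 50% inhibition of growth. Definition used: TGI = concentration required for complete inhibition of growth.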

As to `C/C(=C(/c1ccc(O)cc1)c1ccc(OCCN2CCCC2)cc1)c1ccccc1`, the GI50 in the assay on SN12C renal was 9.17 µM; with SNB-75 CNS it was 3.07 µM; with ACHN renal it was 4.28 µM; with NCI-H23 lung, 4.31 µM; in the assay with COLO 205 colon, 1.7 µM; in the assay on RXF 393 renal it was 2 µM. Moreover, the GI50 in the assay with UACC-257 melanoma was 2.03 µM; in the assay with 786-0 renal it was 1.86 µM; in the assay with RPMI-8226 leukemia it was 2.4 µM; with NCI-H522 lung, 2.1 µM. The TGI with SN12C renal is 25.7 µM; in the assay on SNB-75 CNS, 15.7 µM; in the assay with ACHN renal, 16.3 µM; in the assay on NCI-H23 lung, 18.2 µM; in the assay with COLO 205 colon, 3.38 µM; in the assay on RXF 393 renal, 5.05 µM. Further, the TGI with UACC-257 melanoma was 3.93 µM; in the assay on 786-0 renal, 4.09 µM; in the assay with RPMI-8226 leukemia it was 6.72 µM; with NCI-H522 lung, 5.09 µM.
Consider `CN1CCCC1c1cccnc1.O=C(O)c1ccccc1O.O=C([O-])c1ccccc1[OH2+].O=C([O-])c1ccccc1[OH2+].O=C([O-])c1ccccc1[OH2+].[Mn+2]` (centres undefined), for which the GI50 in the assay with SN12C renal, in the assay with SNB-75 CNS, in the assay with ACHN renal, with NCI-H23 lung, in the assay with COLO 205 colon and in the assay with RXF 393 renal was over 100 µM throughout. The GI50 in the assay with UACC-257 melanoma was 37.6 µM; with 786-0 renal, over 100 µM; in the assay on RPMI-8226 leukemia it was 92.7 µM; in the assay on NCI-H522 lung it was 12.1 µM. The TGI with SN12C renal, with SNB-75 CNS, in the assay with ACHN renal, in the assay with NCI-H23 lung, with COLO 205 colon and in the assay on RXF 393 renal was over 100 µM in each case. For the same molecule, the TGI in the assay with UACC-257 melanoma is over 100 µM; in the assay with 786-0 renal it was over 100 µM; with RPMI-8226 leukemia, over 100 µM; in the assay on NCI-H522 lung, 27.7 µM.
Consider `Cc1nnc([S-])s1.[Au+].c1ccc([PH+](c2ccccc2)c2ccccc2)cc1`, for which the GI50 was 1.53 µM with SNB-75 CNS; 1.86 µM with ACHN renal; 1.26 µM with RXF 393 renal; 1.52 µM with UACC-257 melanoma; 1.78 µM in the assay on 786-0 renal; 1.8 µM in the assay with RPMI-8226 leukemia. The GI50 in the assay on NCI-H522 lung is 0.692 µM. Moreover, the TGI turned out to be 2.87 µM in the assay with SNB-75 CNS; 3.26 µM with ACHN renal; 2.53 µM in the assay on RXF 393 renal; 3.09 µM with UACC-257 melanoma; 3.32 µM in the assay on 786-0 renal; 5.31 µM with RPMI-8226 leukemia. In the assay with NCI-H522 lung, this molecule came in with a TGI of 3.17 µM.
Turning to `c1ccc(SCCCC(Sc2ccccc2)Sc2ccccc2)cc1`, the TGI in the assay on SN12C renal, in the assay on SNB-75 CNS, with ACHN renal, in the assay with NCI-H23 lung, in the assay with COLO 205 colon and with RXF 393 renal was over 100 µM each time. Further, the TGI with UACC-257 melanoma, in the assay with 786-0 renal and in the assay on RPMI-8226 leukemia was over 100 µM each time.
For `O=C1C=C(Nc2cccc(Br)c2)c2ccccc2C1=O`, the GI50 was 5.79 µM in the assay on SN12C renal; 0.39 µM in the assay with SNB-75 CNS; 0.957 µM with ACHN renal; over 100 µM in the assay on COLO 205 colon; 3.27 µM in the assay with RXF 393 renal; 5.99 µM with UACC-257 melanoma. Besides, the GI50 in the assay with 786-0 renal was 7.25 µM; in the assay with RPMI-8226 leukemia, 22.2 µM; in the assay on NCI-H522 lung, 4.79 µM. Besides, the TGI in the assay with SN12C renal was 23.8 µM; in the assay on SNB-75 CNS it was 5.01 µM; in the assay with ACHN renal, over 100 µM; in the assay with COLO 205 colon, over 100 µM; in the assay on RXF 393 renal, 22.4 µM; with UACC-257 melanoma, over 100 µM. Besides, the TGI with 786-0 renal is 28.2 µM; in the assay on RPMI-8226 leukemia, over 100 µM; in the assay on NCI-H522 lung it was 60.1 µM.
For `CC1=C(C#N)C(N)=C2C(C)=C(C#N)C(N)=C12`, the TGI in the assay on SN12C renal, in the assay with SNB-75 CNS, in the assay on NCI-H23 lung, in the assay on COLO 205 colon, in the assay with RXF 393 renal and in the assay on UACC-257 melanoma was over 100 µM each time. For the same molecule, the TGI with 786-0 renal, in the assay with RPMI-8226 leukemia and in the assay on NCI-H522 lung was over 100 µM each time.
For `CCOC(=O)CCC1(C(=O)OC)CCCC1=O` (centres undefined), the TGI with SNB-75 CNS, in the assay with ACHN renal, in the assay with NCI-H23 lung, in the assay with COLO 205 colon, in the assay on RXF 393 renal and in the assay on UACC-257 melanoma was over 100 µM throughout. The TGI in the assay with 786-0 renal, in the assay on RPMI-8226 leukemia and in the assay on NCI-H522 lung was over 100 µM throughout.
In the case of `COc1ccc2cccc(C(=N)c3ccc(C)c4c3CCC4)c2c1`, the TGI came to 24.5 µM in the assay on SN12C renal; 27.2 µM with SNB-75 CNS; 21.7 µM with ACHN renal; 19.6 µM in the assay with NCI-H23 lung; 25.9 µM in the assay on COLO 205 colon; 26.3 µM with RXF 393 renal. The values for the TGI in the assay on UACC-257 melanoma, with 786-0 renal and in the assay with NCI-H522 lung were 18.2 µM, 21.9 µM and 10.1 µM, respectively.
Regarding `COc1ccc(C[C@H]2C[C@@H](O)[C@@H](C)C/C=C/Cc3cccc(O)c3C(=O)O2)cn1`, the GI50 in the assay on SN12C renal is 19.4 µM; in the assay on SNB-75 CNS, 17 µM; with ACHN renal, 25.5 µM; in the assay on NCI-H23 lung it was 24.2 µM; with COLO 205 colon, 34 µM; in the assay on RXF 393 renal, 30.5 µM. Moreover, the GI50 is 21.5 µM with UACC-257 melanoma, 18 µM with 786-0 renal and 14.2 µM in the assay with NCI-H522 lung. Also, the TGI in the assay on SN12C renal was 43.9 µM; in the assay on SNB-75 CNS it was 73.4 µM; in the assay with ACHN renal, 65.9 µM; in the assay on NCI-H23 lung, 56.8 µM; in the assay with COLO 205 colon, over 100 µM; in the assay with RXF 393 renal, over 100 µM. For the same molecule, the TGI is 71.4 µM in the assay with UACC-257 melanoma, 77.7 µM in the assay on 786-0 renal and 49.1 µM in the assay on NCI-H522 lung.
`Cc1ccc([P+](Cc2ccc([N+](=O)[O-])cc2)(c2ccc(C)cc2)c2ccc(C)cc2)cc1`: the GI50 is 4.27 µM in the assay with SN12C renal; 1.99 µM in the assay with SNB-75 CNS; 15.8 µM with ACHN renal; 1.65 µM in the assay on COLO 205 colon; 5.55 µM with RXF 393 renal; 1.69 µM in the assay with UACC-257 melanoma. In addition, the results for the GI50 with 786-0 renal, with RPMI-8226 leukemia and with NCI-H522 lung were 9.72 µM, 1.02 µM and 1.56 µM, respectively. For the same molecule, the TGI in the assay with SN12C renal is 17.5 µM; in the assay on SNB-75 CNS it was 8.77 µM; with ACHN renal, 38.4 µM; in the assay on COLO 205 colon it was 3.95 µM; with RXF 393 renal, 20.2 µM; in the assay on UACC-257 melanoma, 5.3 µM. Also, the TGI came out at 22.3 µM in the assay with 786-0 renal, 4.86 µM in the assay on RPMI-8226 leukemia and 4.26 µM in the assay on NCI-H522 lung.
